In patent publication US12448399B2, “Cereblon-based KRAS degrading PROTACs and uses related thereto” (Arvinas Operations, Inc., priority 2023, dated 2025):

Key:
[1] = system: AsPC-1; assay: Tumor growth inhibition in vivo, AsPC-1 pancreatic cancer model; parameters: species or system CB17 SCID female mice; conditions: AsPC-1 model, dosed intravenously (IV)
Protocol: (§1) The effect on tumor growth of treatment with Compound 69 and 102 was assessed in the GP2d (95090714 Millipore Sigma, USA) and LS180 (CL-187 ATCC, USA) colorectal cancer models, and the AsPC-1 (CRL-1682 ATCC, USA), SW1990 (CRL-2172, ATCC, USA), HPAC (CRL-2119 ATCC, USA), and Panc04.03 (CRL-2555 ATCC, USA) pancreatic cancer models. Briefly, cells were grown in HYPER flasks (Corning) and harvested and prepared for implant by preparing a suspension with a final concentration of 25×10^6 cells/ml in 50% matrigel (Corning) and 50% phenol red-free media (Gibco DMEM or RPMI-1640, depending on cell line). For Panc04.03, 6-7 week NOD/SCID female mice (GemPharmatech Co. Ltd) were inoculated with 200 μl of the cell suspension ([…]) subcutaneously on the left flank under sterile conditions. For all other cell lines, 6-8 weeks old CB17 SCID female mice (Charles River Laboratories) were inoculated with 200 μl of the cell suspension (5 million cells/mouse) subcutaneously on the left flank under sterile conditions. Studies were initiated when tumors reached an average of approximately 200 mm^3. […] Tumor growth inhibition (TGI) was calculated using the formula % TGI=(VC−VT)/(VC−V0)×100 where VC, VT are the average of control and treated groups at the end of the study, and V0 is the average tumor volume at randomization.

[2] = system: Panc04.03; assay: Tumor growth inhibition in vivo, Panc04.03 pancreatic cancer model; parameters: species or system NOD/SCID female mice; conditions: Panc04.03 model, dosed intravenously (IV)
Protocol: as §1

[3] = system: GP2d; assay: Tumor growth inhibition in vivo, GP2d colorectal cancer model; parameters: species or system CB17 SCID female mice; conditions: dosed intravenously (IV)
Protocol: as §1

[4] = molecular target: T1, KRas-G12D (Homo sapiens, UniProt P01116, G12D); assay: HiBiT Degradation Assay (G12D), AsPC-1 HiBiT-KRasG12D cells, 24 hr; type: cell-based; conditions: for Dmax: ASPC1, AsPC-1 cells, maximum degradation observed; for DC50: AsPC-1 cells
T1 construct: insert the HiBiT tag onto the N-terminus of one or more of the endogenous KRas alleles; host or cells: AsPC-1 HiBiT-KRasG12D knock-in clone (one tagged allele, two untagged KRasG12D alleles)
Procedure, shortened: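 Degradation was read after 24 hr compound exposure (0.5% DMSO, 37° C) by Nano-Glo HiBiT lytic luminescence in AsPC-1 cells carrying a HiBiT tag on one of three KRasG12D alleles. Signal relative to DMSO gave DC50 and Dmax by 4-parameter fit; alamar blue fluorescence monitored cytotoxicity.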

[5] = system: SW1990; assay: Tumor growth inhibition in vivo, SW1990 pancreatic cancer model; parameters: species or system CB17 SCID female mice; conditions: dosed intravenously (IV)
Protocol: as §1

[6] = system: LS180; assay: Tumor growth inhibition in vivo, LS180 colorectal cancer model; parameters: species or system CB17 SCID female mice; conditions: dosed intravenously (IV)
Protocol: as §1

[7] = system: HPAC; assay: Tumor growth inhibition in vivo, HPAC pancreatic cancer model; parameters: species or system CB17 SCID female mice; conditions: dosed intravenously (IV)
Protocol: as §1

T1 sequence (P01116 1-188 isoform P01116-2 G12D): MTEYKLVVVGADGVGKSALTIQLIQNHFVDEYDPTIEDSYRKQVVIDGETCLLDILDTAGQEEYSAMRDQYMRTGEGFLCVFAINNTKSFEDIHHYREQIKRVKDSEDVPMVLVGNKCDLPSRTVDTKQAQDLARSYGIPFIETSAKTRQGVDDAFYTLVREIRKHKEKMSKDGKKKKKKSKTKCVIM

Structure (SMILES)	Tumor growth response [1]	Tumor growth inhibition (TGI) [2]	Tumor growth inhibition (TGI) [3]	Dmax [4] [%]	DC50 [4] [µM]	Tumor growth inhibition (TGI) [5]	Tumor growth inhibition (TGI) [6]	Tumor growth inhibition (TGI) [7]	TGI [1] [%]
C#Cc1c(F)ccc2cc(O)cc(-c3ncc4c(N5CC6CCC(C5)N6)nc(OCCN5CCC(CC6CCN(CC7CCN(c8ccc9c(c8F)CN(C8CCC(=O)NC8=O)C9=O)CC7)CC6)CC5)nc4c3F)c12 (stereo not shown) [Compound 69, 3-[5-[4-[[4-[[1-[2-[4-(3,8-diazabicyclo[3.2.1]octan-3-yl)-7-(8-ethynyl-7-fluoro-3-hydroxy-1-naphthyl)-8-fluoro-pyrido[4,3-d]pyrimidin-2-yl]oxyethyl]-4-piperidyl]methyl]-1-piperidyl]methyl]-1-piperidyl]-4-fluoro-1-oxo-isoindolin-2-yl]piperidine-2,6-dione]	More moderate response	robust TGI	robust TGI	> 70	< 5.1	robust TGI	robust TGI	robust TGI	
C#Cc1c(F)ccc2cc(O)cc(-c3ncc4c(N5CC6CCC(C5)N6)nc(OCCN5CCC(CC6CCN(CC7CCN(c8ccc9c(c8)n(C)c(=O)n9C8CCC(=O)NC8=O)CC7)CC6)CC5)nc4c3F)c12 (stereo not shown) [Compound 102, 3-[5-[4-[[4-[[1-[2-[4-(3,8-diazabicyclo[3.2.1]octan-3-yl)-7-(8-ethynyl-7-fluoro-3-hydroxy-1-naphthyl)-8-fluoro-pyrido[4,3-d]pyrimidin-2-yl]oxyethyl]-4-piperidyl]methyl]-1-piperidyl]methyl]-1-piperidyl]-3-methyl-2-oxo-benzimidazol-1-yl]piperidine-2,6-dione]		robust TGI	robust TGI	> 70	< 5.1	robust TGI	robust TGI	robust TGI	100
C#Cc1c(F)ccc2cc(O)cc(-c3ccc4c(N5CC6CCC(C5)N6)nc(OCCN5CCC(CN6CCC(CC7CCN(c8ccc9c(c8)n(C)c(=O)n9C8CCC(=O)NC8=O)CC7)CC6)CC5)nc4c3F)c12 (stereo not shown) [Compound 233]				> 70	< 5.1				
C#Cc1c(F)ccc2cccc(-c3ncc4c(N5CC6CCC(C5)N6)nc(OC[C@@]56CCCN5[C@H](CN5CCN(CC7CCN(c8ccc9c(c8)n(C)c(=O)n9C8CCC(=O)NC8=O)CC7)CC5)CC6)nc4c3F)c12 (stereo partly shown) [Compound 234]				> 70	< 5.1				
C#Cc1c(F)ccc2cc(O)cc(-c3ncc4c(N5CC6CCC(C5)N6)nc(N5CC[C@@H](N6CCC(CC7CCN(c8ccc9c(c8)n(C)c(=O)n9C8CCC(=O)NC8=O)CC7)CC6)C5)nc4c3F)c12 (stereo partly drawn) [Compound 236, 3-[5-[4-[[1-[(3R)-1-[4-(3,8-diazabicyclo[3.2.1]octan-3-yl)-7-(8-ethynyl-7-fluoro-3-hydroxy-1-naphthyl)-8-fluoro-pyrido[4,3-d]pyrimidin-2-yl]pyrrolidin-3-yl]-4-piperidyl]methyl]-1-piperidyl]-3-methyl-2-oxo-benzimidazol-1-yl]piperidine-2,6-dione]				> 70	< 5.1				
C#Cc1c(F)ccc2cc(O)cc(-c3ccc4c(N5CC6CCC(C5)N6)nc(OCCN5CCC(CC6CCN(CC7CCN(c8ccc9c(c8)n(C)c(=O)n9C8CCC(=O)NC8=O)CC7)CC6)CC5)nc4c3F)c12 (stereo not shown) [Compound 237]				> 70	< 5.1				
C#Cc1c(F)ccc2cccc(-c3ncc4c(N5CC6CCC(C5)N6)nc(OC[C@@]56CCCN5[C@H](CN5CCN(CC7CCN(c8ccc9c(c8F)CN(C8CCC(=O)NC8=O)C9=O)CC7)CC5)CC6)nc4c3F)c12 (stereo partly shown) [Compound 238]				> 70	< 5.1				
C#Cc1c(F)ccc2cc(O)cc(-c3ncc4c(N5CC6CCC(C5)N6)nc(OCCN5CCC(CN6CCN(CC7CCN(c8ccc9c(c8F)CN(C8CCC(=O)NC8=O)C9=O)CC7)CC6(C)C)CC5)nc4c3F)c12 (stereo not shown) [Compound 239, 3-[5-[4-[[4-[[1-[2-[4-(3,8-diazabicyclo[3.2.1]octan-3-yl)-7-(8-ethynyl-7-fluoro-3-hydroxy-1-naphthyl)-8-fluoro-pyrido[4,3-d]pyrimidin-2-yl]oxyethyl]-4-piperidyl]methyl]-3,3-dimethyl-piperazin-1-yl]methyl]-1-piperidyl]-4-fluoro-1-oxo-isoindolin-2-yl]piperidine-2,6-dione]				> 70	< 5.1				
